Reference: ChEMBL document CHEMBL3091345, “Strepsesquitriol, a rearranged zizaane-type sesquiterpenoid from the deep-sea-derived actinomycete Streptomyces sp. SCSIO 10355” (2013)

Test system: RAW264.7
Experiment: Antiinflammatory activity in mouse RAW264.7 cells assessed as inhibition of LPS-induced TNFalpha production at 100 uM treated 4 hrs before LPS challenge measured after overnight incubation by ELISA
Format: functional

| SMILES | inhibition at 100 µM [%] |
| --- | --- |
| C[C@H]1C[C@@H](O)[C@]23C[C@H](CC[C@]12O)C(C)(C)[C@]3(C)O | 35.4 |
| Cc1ccc(S(=O)(=O)N[C@@H](Cc2ccccc2)C(=O)CCl)cc1 [TPCK] | 60.6 |
